Patent publication US10556844B2, “Pyrazole compounds as nitrification inhibitors” (BASF SE, priority 2015, dated 2020)

Tested on: nitrification
Assay: Inhibition of nitrification in field soil (48 well plate, ammonium sulfate, colour reaction read at 540 nm)
Settings: for IN (best inhibition value obtained for a compound): soil, room temperature, up to 72 hrs
Method: The compounds of the invention have been tested as follows in terms of the inhibition of nitrification:
Soil was sampled fresh from a field (e.g. Limburgerhof), dried and sieved through a 500 μm sieve. Approximately 200 mg of soil were placed into each well of a 48 well plate. Compounds, or DMSO alone, were added at a concentration of 10 ppm, dissolved in 1% DMSO. 6 μmol ammonium sulfate was added per well as well as 4.8 mg NaClO3.
Subsequently, the samples were incubated at room temperature for up to 72 hrs. After the incubation period 64 mg KCl were added and mixed. 25 μl of the supernatant were placed into a fresh plate and 260 μl of a color reaction solution (from Merck Nr 1.11799.0100) were added.
Measurements were taken with a Tecan plate Reader at 540 nm wavelength.
Inhibition is calculated as x=% activity compared to control, and converted to 100-x to give the value of inhibition, rather than activity.

Compound | IN (best inhibition value obtained for a compound) (dose of 10 ppm) | also measured
C#CCn1nc(O)c2ccccc21 [Compound A-14] | 59% | 
C#CCn1cccn1 [Compound A-19] | 45% | 
C#CCn1ncc2c1C(=O)c1ccccc1C2=O [Compound A-33] | 44% | 
C#CCn1ncc(C(=O)O)c1C [Compound A-42] | 17% | 
C#CCn1nc(C)c(OC(C)=O)c1C [Compound A-44] |  | IN (best inhibition value obtained for a compound) (dose of 5±1 ppm): 59%
C=C=Cn1ccc(C)n1 [Compound B-5] | >10% | 
C=C=Cn1nccc1C [Compound B-6] | >10% | 
C#Cc1ccccc1 [Phenylacetylene, phenylacetylene, reference compound] |  | IN (inhibition value) (reference compound, same conditions, dose of 10 ppm): 7%
